Here are results for five compounds from patent US20130338217A1, “ANTIBIOTIC COMPOSITION INCLUDING PHLOROTANNIN COMPOUND DERIVED FROM EISENIA BICYCLIS AS EFFECTIVE COMPONENT” (PUKYONG NATIONAL UNIVERSITY INDUSTRY-UNIVERSITY C, priority 2012, published 2013).

≈ marks a conversion by molar mass, not a printed value.

What all share (format): cell-based, Staphylococcus aureus
In one assay the test system is MSSA (KCTC 1927). Kind of assay: Minimum inhibitory concentration, two-fold serial dilution, MSSA KCTC 1927. The method, then:
(§1) All the bacterial strains used for the Example were obtained from the Korean Collection of Type Cultures (KCTC; Daejeon, Korea) and the Korean Culture Center of Microorganisms (KCCM; Seoul, Korea). The bacterial strains used for the Example were methicillin-susceptible S. aureus (MSSA; KCTC 1927), two MRSA strains (KCCM 40510 and KCCM 40511). All strains were grown in Mueller-Hinton broth (MHB; Difco, Detroit, USA) or Tryptic soy broth (TSB; Difco) for minimum inhibitory concentration (MIC) assay and in Mueller-Hinton agar (MHA; Difco) for disc diffusion.
(§2) MIC means the lowest concentration of antimicrobials that will inhibit the visible growth of microorganisms after overnight incubation. MICS of the extracts and vancomycin were determined by the two-fold serial dilution method in MHB.

Assay [1] deals with MRSA (KCCM 40510). Kind of assay: Minimum inhibitory concentration, two-fold serial dilution, MRSA KCCM 40510. The method, then: as §1, §2
The subject of assay [2] is MRSA (KCCM 40511). The assay is described as follows: Minimum inhibitory concentration, two-fold serial dilution, MRSA KCCM 40511. The method, then:
as §1, §2

A further assay concerns MSSA (KCCTC 1927). The assay is described as follows: Checkerboard synergy of phlorofucofuroeckol-A and β-lactams, MSSA KCTC 1927.
For assay [3], the system named is MRSA (KCCM 40510). Kind of assay: Checkerboard synergy of phlorofucofuroeckol-A and β-lactams, MRSA KCCM 40510. The method, then:
(§3) The interaction between phlorofucofuroeckol-A (PFF) and β-lactams including ampicillin, penicillin and oxacillin against MRSA was tested by the checkerboard method. The synergistic effect was evaluated as a fractional inhibitory concentration (FIC) index. The FIC was calculated as the MICS of an antibiotic or phlorofucofuroeckol-A (PFF) in combination divided by the MIC of the antibiotic or PFF alone as follows.
(§4) The FIC was then summed to derive the FIC index, which indicated synergy when index values were as follows:
(§5) synergism ≦≦0.5, indifference >0.5 to ≦≦4, antagonism >4.
(§6) FICA=MICA in combination/MICA, FICB=MICB in combination/MICB

Assay [4] deals with MRSA (KCCM 40511). The assay is described as follows: Checkerboard synergy of phlorofucofuroeckol-A and β-lactams, MRSA KCCM 40511. The method, then:
as §3, §4, §5, §6

The subject of assay [5] is mec operon (mecA, mecI, mecR1). Kind of assay: RT-PCR of drug resistance related genes in MRSA. To be noted: MRSA cells treated with various concentrations. The method, then:
In order to elucidate the inhibitory effect of phlorofucofuroeckol-A on expression of drug resistance related genes, MRSA cells were treated with various concentrations of phlorofucofuroeckol-A. After cell harvesting, Total RNA was isolated from the strains with zirconia beads and RNAwiz with the manufacturer's specifications. RNA concentrations were estimated via spectrophotometer at 260 nm. The 0.2-1.4 μg of total RNA plus 1.4 μg of random primer was denatured at 65° C. for 5 min, then cooled at 30 sec and preincubated for 2 min at 37° C. after the addition of 10 mM dithioothreitol (DTT), 2.5 mM each of dNTPs, and reaction buffer. Any remaining cRNA was removed via the addition of 2 units RNase H at 37° C. for 20 min. One hundred units of Superscript II reverse transcriptase were added and incubated for 50 min at 37° C. The reaction was then suspended at 70° C. for 15 min. One point five percent of the RT products were added to a PCR reaction which included PCR buffer (pH 8.4, 20 mM Tris, 50 mM KCl), 1.5 mM MgCl2, 0.5 mM dNTPs, 2 pM primers and 0.1 μL Taq DNA polymerase. Twenty-eight PCR cycles were then conducted follows: denaturation at 95° C. annealing at an indicated temperature for each primer and extension at 72° C. […]

Another assay has as its system PBP2a. Kind of assay: Western blot of PBP2a in MRSA. To be noted: MRSA cells treated with various concentrations. The method, then: In order to elucidate the inhibitory effect of phlorofucofuroeckol-A on expression of a drug resistance related protein, PBP2a, MRSA cells were treated with various concentrations of phlorofucofuroeckol-A. After cell harvesting, the bacterial lysates were prepared in a lysis buffer containing 20 mM Tris-HCl (pH 7.5), 2 mM ethyleneglycoltetraacetic acid (EGTA), 2 mM ethylenediaminetetraacetic acid (EDTA) and 0.25 M sucrose. The pellets were resuspended by sonication in lysis buffer 2 times for 20 sec. Following 10 min of centrifugation at 13,000×g, the supernatant was obtained as the cell lysate. Protein concentrations were measured with Bradford protein assay. An equal amount of 2×SDS-PAGE sample buffer (pH […], 1 mM EGTA, 1 mM EDTA, 1% SDS, 150 mM NaCl) was added to the tubes containing the cell lysate and the tubes were boiled for 3 min. Aliquots of cellular proteins were then electrophoresed on 10%.
A general note: In western blotting, separated proteins are transferred to a membrane and probed.

In the next assay the test system is MRSA. Kind of assay: Synergy of PFF with β-lactams against MRSA as stated in text. The conditions noted are these: PFF 25 pg/mL as printed. The method, then:
as §3

Setting [6] is: Table 6, isolated phlorotannins.
The mark [7] stands for this setting: Table 5, PFF and β-lactams, mecA negative strain.
Setting [8] is: Table 5, PFF and β-lactams, mecA positive strain.
Setting [9] is: in combination with phlorofucofuroeckol-A at 12.5 μg/ml.
The mark [10] stands for this setting: in combination with phlorofucofuroeckol-A at 25 μg/ml.
Setting [11] is: β-lactam with phlorofucofuroeckol-A at 12.5 μg/ml, synergism ≦0.5, indifference >0.5 to ≦4, antagonism >4.
The mark [12] stands for this setting: β-lactam with phlorofucofuroeckol-A at 25 μg/ml, synergism ≦0.5, indifference >0.5 to ≦4, antagonism >4.

PBP2a, sequence (P07944 whole entry): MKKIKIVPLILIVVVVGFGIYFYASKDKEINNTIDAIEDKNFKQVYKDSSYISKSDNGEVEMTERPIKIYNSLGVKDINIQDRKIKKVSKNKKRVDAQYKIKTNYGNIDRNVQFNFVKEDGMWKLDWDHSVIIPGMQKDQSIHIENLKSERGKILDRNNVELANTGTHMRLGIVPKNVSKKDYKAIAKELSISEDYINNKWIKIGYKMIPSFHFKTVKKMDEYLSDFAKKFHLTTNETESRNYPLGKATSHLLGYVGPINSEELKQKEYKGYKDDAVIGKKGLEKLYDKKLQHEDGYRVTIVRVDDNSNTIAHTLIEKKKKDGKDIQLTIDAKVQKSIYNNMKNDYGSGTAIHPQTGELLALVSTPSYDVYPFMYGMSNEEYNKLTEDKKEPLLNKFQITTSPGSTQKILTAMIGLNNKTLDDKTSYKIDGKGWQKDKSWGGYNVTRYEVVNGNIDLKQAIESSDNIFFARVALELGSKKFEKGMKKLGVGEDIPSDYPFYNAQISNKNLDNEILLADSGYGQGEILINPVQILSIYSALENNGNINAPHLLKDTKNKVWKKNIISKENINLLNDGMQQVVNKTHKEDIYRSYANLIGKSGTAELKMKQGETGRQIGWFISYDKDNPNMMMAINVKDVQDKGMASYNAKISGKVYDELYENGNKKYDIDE

Regarding `Oc1cc(O)cc(Oc2c(O)cc(O)c3c2Oc2c(O)cc(Oc4c(O)cc(O)cc4O)cc2O3)c1` [PE, 1-(3′,5′-dihydroxyphenoxy)-7-(2″,4″,6-trihydroxyphenoxy)-2,4,9-trihydroxydibenzo-1,4-dioxin], the MIC (usually the lowest concentration found to suppress growth) against MSSA (KCTC 1927) (setting [6]) was determined as 64 µg/mL (≈ 129 µM); against MRSA (KCCM 40510) [1] (setting [6]), 32 µg/mL (≈ 64.5 µM); with MRSA (KCCM 40511) [2] (setting [6]), 64 µg/mL (≈ 129 µM).
As to `CN[C@H](CC(C)C)C(=O)N[C@H]1C(=O)N[C@@H](CC(N)=O)C(=O)N[C@H]2C(=O)N[C@H]3C(=O)N[C@H](C(=O)N[C@H](C(=O)O)c4cc(O)cc(O)c4-c4cc3ccc4O)[C@H](O)c3ccc(c(Cl)c3)Oc3cc2cc(c3O[C@@H]2O[C@H](CO)[C@@H](O)[C@H](O)[C@H]2O[C@H]2C[C@](C)(N)[C@H](O)[C@H](C)O2)Oc2ccc(cc2Cl)[C@H]1O` [Vancomycin, vancomycin], the MIC against MSSA (KCTC 1927) (Staphylococcus aureus) turned out to be 0.5 µg/mL (≈ 0.345 µM); with MRSA (KCCM 40510) [1] (Staphylococcus aureus), 2 µg/mL (≈ 1.38 µM); with MRSA (KCCM 40511) [2] (Staphylococcus aureus), 2 µg/mL (≈ 1.38 µM).
With fucofuroeckol-A [FF], the MIC in the assay on MSSA (KCTC 1927) (setting [6]) is 32 µg/mL; against MRSA (KCCM 40510) [1] (setting [6]) it was 64 µg/mL; against MRSA (KCCM 40511) [2] (setting [6]) it was 64 µg/mL.
Turning to penicillin, the figures for the MIC in the assay on MSSA (KCTC 1927) (setting [7]), against MRSA (KCCM 40510) [1] (setting [8]) and against MRSA (KCCM 40511) [2] (setting [8]) were 0.125 µg/mL, 512 µg/mL and 256 µg/mL, respectively. The “MIC of β-lactam (B)” value in the assay on MSSA (KCCTC 1927) (setting [9]) was 0.125 µg/mL; with MRSA (KCCM 40510) [3] (setting [9]) it was 4 µg/mL; in the assay with MRSA (KCCM 40511) [4] (setting [9]) it was 1 µg/mL. The figures for the “MIC of β-lactam (C)” value in the assay on MSSA (KCCTC 1927) (setting [10]), in the assay on MRSA (KCCM 40510) [3] (setting [10]) and with MRSA (KCCM 40511) [4] (setting [10]) were 0.125 µg/mL, 2 µg/mL and 0.5 µg/mL, respectively. For the same compound, the “MIC of β-lactam (A)” value in the assay on MSSA (KCCTC 1927) (without phlorofucofuroeckol-A) was 0.125 µg/mL; in the assay on MRSA (KCCM 40510) [3] (without phlorofucofuroeckol-A), 512 µg/mL; in the assay with MRSA (KCCM 40511) [4] (without phlorofucofuroeckol-A), 256 µg/mL. The “FIC index (b)” value was determined as 1.391 in the assay on MSSA (KCCTC 1927) (setting [11]), 0.399 in the assay with MRSA (KCCM 40510) [3] (setting [11]) and 0.395 with MRSA (KCCM 40511) [4] (setting [11]). The “FIC index (c)” value stood at 1.781 in the assay with MSSA (KCCTC 1927) (setting [12]), 0.395 in the assay with MRSA (KCCM 40510) [3] (setting [12]) and 0.393 in the assay with MRSA (KCCM 40511) [4] (setting [12]).
With phlorofucofuroeckol A [PFF], the MIC against MSSA (KCTC 1927) (setting [7]), in the assay with MSSA (KCTC 1927) (setting [6]), with MRSA (KCCM 40510) [1] (setting [8]), with MRSA (KCCM 40510) [1] (setting [6]), in the assay on MRSA (KCCM 40511) [2] (setting [8]) and with MRSA (KCCM 40511) [2] (setting [6]) was 32 µg/mL throughout. For the same compound, the “gene transcription of mec operon (mecA, mecI, mecR1)” value in [5] was “inhibited the gene transcription of mec operon (mecA, mecI, mecR1) involving in synthesizing PBP2a depending on the concentrations”. The “PBP2a synthesis (protein expression)” value with PBP2a is listed as “inhibited a PBP2a synthesis that is a final product of mecA gene depending on the concentrations”. Also, in the assay on MRSA, the “effect on the MICs of the β-lactams against MRSA” value is recorded as “remarkably reduce the MICS of the β-lactams against MRSA”.
